Results on eleven compounds are retold here after US20250197399A1, “COMPOUNDS, COMPOSITIONS, AND METHODS” (Tenvie Therapeutics, Inc., priority 2022, published 2025).

Read-outs that look alike come from different tables or passages of the source. Bounds are passed on as bounds.

This assay concerns NLRP3. In words: IL-1β secretion assay in PMA-differentiated, LPS/nigericin-stimulated THP-1 cells (ELISA). In kind it is cell-based. As to conditions: 25 ng/mL LPS then nigericin, IL-1β in supernatant. In short, it runs like this:
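PMA-differentiated (5 ng/mL, 40 h) THP-1 cells primed with 25 ng/mL LPS in serum-free medium for 2 h, then compound (0.5% DMSO) for 1 h before nigericin, 2 h at 37 °C. Supernatant IL-1β measured by sandwich ELISA; dose-response normalized to LPS+nigericin high and LPS-only low controls.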

Setting [1] is: THP-1 cells, read-out: Activity.
Where [2] appears, read: THP-1 cells, read-out: Activity (IC50 class).
[3] abbreviates: Homo sapiens, THP-1, THP-1 cells, read-out: Activity.
The mark [4] stands for this setting: Homo sapiens, THP-1, THP-1 cells, read-out: Activity (IC50 class).

Regarding `O=C(CN1CC2(CC2)c2cc(Br)ccc2C1=O)NC1CC(O)(C2CC2)C1` (single isomer, unassigned) [Example 57, 2-(6-bromo-1-oxospiro[3H-isoquinoline-4,1′-cyclopropane]-2-yl)-N-(3-cyclopropyl-3-hydroxycyclobutyl)acetamide], the IC50 is, setting by setting: under setting [1], 11100 nM; under setting [2], more than 10000 nM.

For `O=C(CN1CC2(CC2)c2c(ccc(Br)c2F)C1=O)Nc1ccc2nn[nH]c2c1` [Example 61, N-(3H-benzotriazol-5-yl)-2-(6-bromo-5-fluoro-1-oxospiro[3H-isoquinoline-4,1′-cyclopropane]-2-yl)acetamide], the IC50 runs as follows: under setting [3], 162 nM; under setting [4], less than 1000 nM.

As for `C[C@]1(O)C[C@@H](NC(=O)CN2CC3(CC3(F)F)c3cc(C(F)(F)F)ccc3C2=O)C1` (single isomer, unassigned) [Example 52, 2-[1′,1′-difluoro-1-oxo-6-(trifluoromethyl)spiro[3H-isoquinoline-4,2′-cyclopropane]-2-yl]-N-(3-cis-hydroxy-3-methylcyclobutyl)acetamide], the IC50 under setting [1] was determined as 22400 nM and the IC50 under setting [2] is more than 10000 nM.

Consider `O=C(CN1C[C@]2(C[C@H]2F)c2cc(C(F)(F)F)ccc2C1=O)Nc1ncc2cn[nH]c2n1` (single isomer, unassigned) [Example 47, 2-[(2′s,4r)-2′-fluoro-1-oxo-6-(trifluoromethyl)spiro[3H-isoquinoline-4,1′-cyclopropane]-2-yl]-N-(1H-pyrazolo[3,4-d]pyrimidin-6-yl)acetamide], for which the IC50 is less than 1000 nM under setting [4] and 231 nM under setting [1].

Consider `O=C(CN1CC2(CC2(F)F)c2c(ccc(C3CC3)c2F)C1=O)Nc1ncc(Cl)cn1` (single isomer, unassigned) [Example 34, N-(5-chloropyrimidin-2-yl)-2-[6-cyclopropyl-1′,1′,5-trifluoro-1-oxospiro[3H-isoquinoline-4,2′-cyclopropane]-2-yl]acetamide], for which the IC50 by setting is: under setting [4], 1000 to 10000 nM; under setting [1], 15600 nM.

`O=C(CN1C[C@]2(C[C@H]2F)c2c(ccc(Cl)c2F)C1=O)Nc1ncc(Cl)cn1` (single isomer, unassigned) [Example 43, 2-[(2′s,4r)-6-chloro-2′,5-difluoro-1-oxospiro[3H-isoquinoline-4,1′-cyclopropane]-2-yl]-N-(5-chloropyrimidin-2-yl)acetamide]: the IC50 by setting is: under setting [3], 51 nM; under setting [4], less than 1000 nM.

On to `O=C(CN1CC2(CC2)c2c(ccc(Br)c2F)C1=O)Nc1ncc2cn[nH]c2n1` [Example 46, 2-(6-bromo-5-fluoro-1-oxospiro[3H-isoquinoline-4,1′-cyclopropane]-2-yl)-N-(1H-pyrazolo[3,4-d]pyrimidin-6-yl)acetamide], for which the IC50 was 38 nM under setting [3] and less than 1000 nM under setting [4].

On to `C[C@]1(O)C[C@@H](NC(=O)CN2CC3(CC3(F)F)c3cc(C4(F)CC4)ccc3C2=O)C1` (single isomer, unassigned) [Example 23, N-(3-cis-hydroxy-3-methylcyclobutyl)-2-[1′,1′-difluoro-6-(1-fluorocyclopropyl)-1-oxospiro[3H-isoquinoline-4,2′-cyclopropane]-2-yl]acetamide], for which the IC50 was less than 1000 nM under setting [4] and 32 nM under setting [1].

For `O=C(CN1C[C@]2(C[C@H]2F)c2cc(C(F)(F)F)ccc2C1=O)Nc1ncc2cn[nH]c2n1` (single isomer, unassigned) [Example 48, 2-[(2′s,4r)-2′-fluoro-1-oxo-6-(trifluoromethyl)spiro[3H-isoquinoline-4,1′-cyclopropane]-2-yl]-N-(1H-pyrazolo[3,4-d]pyrimidin-6-yl)acetamide], the IC50 under setting [1] is 24 nM and the IC50 under setting [2] was less than 1000 nM.

In the case of `O=C(CN1CC2(CC2(F)F)c2c(ccc(Br)c2F)C1=O)Nc1nc2ccccn2n1` (single isomer, unassigned) [Example 31, N-([1,2,4]triazolo[1,5-a]pyridin-2-yl)-2-[6-bromo-1′,1′,5-trifluoro-1-oxospiro[3H-isoquinoline-4,2′-cyclopropane]-2-yl]acetamide], the IC50 is, setting by setting: under setting [1], 33 nM; under setting [2], less than 1000 nM.

On to `O=C(CN1CC2(CC2(F)F)c2c(ccc(C(F)(F)F)c2F)C1=O)Nc1ncc(Cl)cn1` (single isomer, unassigned) [Example 14, N-(5-chloropyrimidin-2-yl)-2-[1′,1′,5-trifluoro-6-(trifluoromethyl)-1-oxospiro[3H-isoquinoline-4,2′-cyclopropane]-2-yl]acetamide], for which, under setting [2], the IC50 is more than 10000 nM.
